From US7053178B2, “Synthetic peptides and kits for diagnosis of anti-phospholipid syndrome” (Yeda Research Development Co., LTD, priority 1998, dated 2006) come the findings set out here.

One assay relates to anti-β2GPI G-3 mAb. Kind of assay: Competition ELISA: inhibition of G-3 mAb binding to β2GPI. More on the design: species or system human. The settings on record: 10 μM peptide concentration. The method, then: (§1) FIGS. 1A–1C are graphs showing inhibition of the anti-β2GPI ILA-1, ILA-3 and G-3 mAbs binding to β2GPI by competition assays using increasing concentrations of the inhibitory monomer peptides A, B and C, respectively, and of unrelated peptide D as control. The percent of inhibition was calculated as follows: % inhibition=O.D control−O.D with inhibitor/O.D control×100. Each point represents mean±SD of three different experiments.
(§2) (e) Inhibition of anti-β2GPI mAb binding to β2GPI by the inhibitory peptides. For competition ELISA tests, the anti-β2GPI mAbs (10 μg/ml) were preincubated (overnight at 4° C.) with varying concentrations of the peptides. The competition reaction was then transferred to β2GPI-coated γ-irradiated ELISA plates (Nunc), and the assay continued as described above. The percentage of inhibition was calculated as follows: % inhibition=O.D control −O.D with inhibitor/O.D control×100.
(§3) (2a) The specificity of interaction of the mAbs with the corresponding synthetic peptides A, B, C and control peptide D as monomers, was assessed by inhibition experiments as described in Materials and Methods, sections (e) and (f).

Assay [1] has as its system anti-β2GPI ILA-3 mAb. Kind of assay: ELISA for adhesion molecule expression on HUVEC exposed to ILA-3 mAb. It counts as cell-based, human. The method, then: FIG. 4 is a bar graph showing inhibition of expression of the adhesion molecules E-selectin, intracellular adhesion molecule-1 (ICAM-1) and vascular cell adhesion molecule-1 (VCAM-1) on HUVEC by specific inhibitory monomer peptides A, B, or C. To the HUVEC incubated with β2GPI, were added anti-β2GPI ILA-1, ILA-3 and G-3 mAbs with and without preincubation (2 h) with the peptide monomers A, B and C, respectively, and control peptide D. The expression of adhesion molecules was probed by ELISA employing biotinylated anti-human ICAM-1, VCAM-1, E-selectin and streptavidin-alkaline phosphatase. Each point represents mean±SD of three different experiments.
(h) ELISA for detecting the expression of adhesion molecules following exposure to anti-β2GPI mAbs and the inhibitory peptides. HUVEC cells grown in 96-well plates and preincubated with mAbs, with and without different concentrations of specific and irrelevant peptides (100 ug/ml), were washed, fixed with 0.1% glutaraldehyde, and then treated with PBS containing 0.2% Triton-X100 in order to permeabilize the cell membrane (Adamson et al., 1996). The plates were blocked with 3% BSA and incubated with biotinylated mouse anti-human E-selectin, anti-human intracellular adhesion molecule-1 (ICAM-1) or anti-human vascular cell adhesion molecule-1 (VCAM-1) (PharMingen, Torreyana Road, San Diego, Calif.) 1 μg/ml for 1 hour. The cells were then exposed to streptavidin alkaline phosphatase (Jackson) and appropriate substrate.
The enhancement of monocytes to endothelial cells followed by increase in the amount of adhesion molecules expression, as a result of exposure of endothelial cells to anti-β2GPI mAbs, has been observed previously at the laboratory of one of the present inventors. The effect of each specific peptide monomer A, B, C on the expression of the adhesion molecules E-selectin, ICAM-1 and VCAM-1 on HUVEC caused by the corresponding anti-β2GPI mAb, was examined according to Materials and Methods, section (h). […]
Background: ELISA stands for enzyme-linked immunosorbent assay.

Assay [2] deals with anti-β2GPI ILA-3 mAb. The assay can be described thus: Competition ELISA: inhibition of ILA-3 mAb binding to β2GPI. The settings on record: 10 μM peptide concentration. More on the design: species or system human. The procedure: as §1, §2, §3
Assay [3] has as its system experimental APS induced by anti-β2GPI mAb ILA-1. Kind of assay: Murine experimental APS induced by ILA-1 mAb. The settings on record: for aPTT (activated partial thromboplastin time): mice infused i.v. with 20 μg ILA-1 mAb day 0 of pregnancy; for Platelet count / % Fetal loss (Resorbed fetuses/Total fetuses): mice infused with ILA-1 mAb. The assay is classed as in vivo, BALB/c mice. The method, then:
(i) Mice: Female BALB/c mice, aged 10–12 weeks, were purchased from Tel-Aviv University Animal House, Israel. The females were caged overnight with BALB/c males and examined for vaginal plug next morning. The presence of the plug was considered as day 0 of pregnancy in all the studied groups. (j) Induction of murine experimental APS. Mice were infused intravenously with 20 μg of each one of the anti-β2GPI ILA-1, ILA-3, and G-3 mAbs at day 0 (the day at which a vaginal plug was observed following mating) (Blank et al., 1991), 6 hours later the mice received daily 40 μg/mouse of the tested peptides during 3 days. The mice were bled and sacrificed on day 15 of pregnancy. Fetal resorptions, activated partial thromboplastin time and platelet counts (markers of the APS-equivalent in mice) were determined as described (Blank et al., 1991). Significant fetal loss, thrombocytopenia and prolonged activated thromboplastin time (aPTT) were induced in naive mice following passive intravenous administration of the three anti-β2GPI mAbs ILA-1, ILA-3 and G-3, as described in Materials and Methods, section (j). The clinical manifestations of the experimental APS were prevented by infusion of the specific peptide monomers A, B, C which were delivered to the mice with the corresponding pathogenic anti-β2GPI mAbs, as shown in Table 2. […] Similarly, mice which were preinfused with control IgM and received a cocktail of the peptide monomers (A+B+C), were not affected.

Setting [4] is: peptide 40 μg/mouse daily 3 days, day 15.

Where no end group is shown, it is not given here.

As to CATLRVYKGG [Peptide C], the “inhibition of G-3 mAb binding to β2GPI” value with anti-β2GPI G-3 mAb is 98%.
For KDKATFGTHDG [Peptide B], in the assay on anti-β2GPI ILA-3 mAb [1] (HUVEC exposed to ILA-3 mAb), the “ICAM-1 expression by HUVEC” value is on record as “abrogated” and the “VCAM-1 expression by HUVEC” value was “abrogated”. Besides, the “E-selectin expression by HUVEC” value in the assay on anti-β2GPI ILA-3 mAb [1] (ILA-3 mAb preincubated with peptide) is 0.211±0.064 O.D. Also, the “inhibition of ILA-3 mAb binding to β2GPI” value with anti-β2GPI ILA-3 mAb [2] came out at 77%.
As for NTLKTPRVGG [Peptide A], the “aPTT (activated partial thromboplastin time)” value in assay [3] (setting [4]) is 33 ± 4 s; in assay [3] (peptide 40 μg/mouse daily 3 days, day 15, listed as peptide A), 33 ± 4 s. Besides, the Platelet count in assay [3] is reported as 989±103 cells/mm^3×10^3; in assay [3] (setting [4]), 989. Moreover, the “% Fetal loss (Resorbed fetuses/Total fetuses)” value in assay [3] (setting [4]) is given as 8 ± 2%; in assay [3] (peptide 40 μg/mouse daily 3 days, day 15, listed as peptide monomer A), 8±2%.
